Assay results published in patent US20030229053A1, “Compounds and methods for the treatment or prevention of flavivirus infections” (Shire BioChem Inc., priority 2001, published 2003).

What follows are compounds tested against HCV NS5B RNA-dependent RNA polymerase (Hepatitis C virus genotype 1b, UniProt P26663) (assay: In vitro RNA-dependent RNA polymerase assay (Assay 1), polyA/oligo dT, TCA precipitation). Conditions: polyA/oligo dT template/primer, 200 ng NS5B, 2 h at 22° C.; read-out: RNA pol Assay 1 IC50 (μm).
Type: biochemical
Outline: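 Purified NS5B (200 ng) on annealed polyA/oligo dT15 in 20 mM Tris-HCl pH 7.5, 50 mM NaCl, 5 mM MgCl2, 1 mM DTT, 15 µM cold UTP plus [32P]-UTP, 2 h at 22°C. Product TCA-precipitated, filtered onto glass-fibre and counted by liquid scintillation.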

HCV NS5B RNA-dependent RNA polymerase, sequence (P26663 2420-3010 limits assumed): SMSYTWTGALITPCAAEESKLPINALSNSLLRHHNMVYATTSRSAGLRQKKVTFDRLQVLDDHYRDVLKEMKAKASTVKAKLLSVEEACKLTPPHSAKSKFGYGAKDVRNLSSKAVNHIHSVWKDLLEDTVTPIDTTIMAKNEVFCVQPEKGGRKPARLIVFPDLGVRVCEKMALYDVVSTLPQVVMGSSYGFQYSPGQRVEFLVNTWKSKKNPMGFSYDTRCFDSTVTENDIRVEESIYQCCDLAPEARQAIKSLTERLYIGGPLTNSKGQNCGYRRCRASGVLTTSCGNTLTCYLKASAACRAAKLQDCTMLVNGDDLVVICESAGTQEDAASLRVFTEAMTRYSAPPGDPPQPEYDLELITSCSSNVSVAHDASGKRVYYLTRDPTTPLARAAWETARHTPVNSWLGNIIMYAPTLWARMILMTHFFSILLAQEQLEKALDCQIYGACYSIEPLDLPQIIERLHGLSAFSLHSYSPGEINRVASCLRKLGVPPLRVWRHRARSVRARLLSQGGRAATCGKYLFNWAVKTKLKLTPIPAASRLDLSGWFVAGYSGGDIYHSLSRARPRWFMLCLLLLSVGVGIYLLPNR

| Structure (SMILES) | IC50 [µM] |
| --- | --- |
| O=C(O)[C@H](Cc1ccccc1)N(Cc1ccc(-c2ccc(Cl)s2)o1)C(=O)c1ccc(Cl)cc1Cl [compound #126, (2s)-2-[[5-(5-Chloro-thiophen-2-yl)-furan-2-ylmethyl]-(2,4-dichloro-benzoyl)-amino]-3-phenyl-propionic acid] | < 5 |
| O=C(O)[C@H](Cc1ccccc1)N(Cc1ccc(-c2cccs2)s1)C(=O)c1ccc(Cl)cc1Cl [compound #127, (2s)-2-[[2,2′]Bithiophenyl-5-ylmethyl-(2,4-dichloro-benzoyl)-amino]-3-phenyl-propionic acid] | < 5 |
| O=C(O)[C@H](Cc1ccccc1)N(Cc1ccc(-c2ccc(Cl)s2)s1)C(=O)c1ccc(Cl)cc1Cl [compound #128, (2s)-2-[(5′-Chloro-[2,2′]bithiophenyl-5-ylmethyl)-(2,4-dichloro-benzoyl)-amino]-3-phenyl-propionic acid] | < 5 |
| O=C(O)[C@H](Cc1ccccc1)N(Cc1cc(-c2cc(F)cc(F)c2)cs1)C(=O)c1ccc(Cl)cc1Cl [compound #129, (2s)-2-{(2,4-Dichloro-benzoyl)-[4-(3,5-difluoro-phenyl)-thiophen-2-ylmethyl]-amino}-3-phenyl-propionic acid] | < 5 |
| O=C(O)[C@H](Cc1ccccc1)N(Cc1cc(-c2cccc(F)c2)cs1)C(=O)c1ccc(Cl)cc1Cl [compound #130, (2s)-2-{(2,4-Dichloro-benzoyl)-[4-(3-fluoro-phenyl)-thiophen-2-ylmethyl]-amino}-3-phenyl-propionic acid] | < 5 |
| O=C(O)[C@H](Cc1ccccc1)N(Cc1ccc(-c2cccc(C(F)(F)F)c2)o1)C(=O)c1ccc(Cl)cc1I [compound #131, (2s)-2-{(4-Chloro-2-iodo-benzoyl)-[5-(3-trifluoromethyl-phenyl)-furan-2-ylmethyl]-amino}-3-phenyl-propionic acid] | < 5 |
| O=C(O)[C@H](Cc1ccccc1)N(Cc1cc(-c2ccc(Cl)s2)cs1)C(=O)c1ccc(Cl)cc1Cl [compound #133, (2s)-2-[(5-Chloro-[2,3′]bithiophenyl-5′-ylmethyl)-(2,4-dichloro-benzoyl)-amino]-3-phenyl-propionic acid] | < 5 |
| COc1ccc(-c2ccc(CN(C(=O)c3ccc(Cl)cc3Cl)[C@@H](Cc3ccccc3)C(=O)O)o2)cc1 [compound #134, (2s)-2-{(2,4-Dichloro-benzoyl)-[5-(4-methoxy-phenyl)-furan-2-ylmethyl]-amino}-3-phenyl-propionic acid] | < 5 |
| COc1ccc(-c2ccc(CN(C(=O)c3ccc(Cl)cc3Cl)[C@@H](Cc3ccccc3)C(=O)O)s2)cc1 [compound #135, (2s)-2-{(2,4-Dichloro-benzoyl)-[5-(4-methoxy-phenyl)-thiophen-2-ylmethyl]-amino}-3-phenyl-propionic acid] | < 5 |
| COc1ccc(-c2csc(CN(C(=O)c3ccc(Cl)cc3Cl)[C@@H](Cc3ccccc3)C(=O)O)c2)cc1 [compound #136, (2s)-2-{(2,4-Dichloro-benzoyl)-[4-(4-methoxy-phenyl)-thiophen-2-ylmethyl]-amino}-3-phenyl-propionic acid] | < 5 |
| O=C(O)[C@H](Cc1ccccc1)N(Cc1ccc(-c2ccncc2)o1)C(=O)c1ccc(Cl)cc1Cl [compound #137, (2s)-2-[(2,4-Dichloro-benzoyl)-(5-pyridin-4-yl-furan-2-ylmethyl)-amino]-3-phenyl-propionic acid] | < 5 |
| O=C(O)[C@H](Cc1ccccc1)N(Cc1ccc(-c2ccncc2)s1)C(=O)c1ccc(Cl)cc1Cl [compound #138, (2s)-2-[(2,4-Dichloro-benzoyl)-(5-pyridin-4-yl-thiophen-2-ylmethyl)-amino]-3-phenyl-propionic acid] | < 5 |
| O=C(O)[C@H](Cc1ccccc1)N(Cc1cc(-c2ccncc2)cs1)C(=O)c1ccc(Cl)cc1Cl [compound #139, (2s)-2-[(2,4-Dichloro-benzoyl)-(4-pyridin-4-yl-thiophen-2-ylmethyl)-amino]-3-phenyl-propionic acid] | < 5 |

Each compound was assayed against recombinant HCV NS5B (Hepatitis C virus genotype 1b, UniProt P26663) (assay: biochemical). Conditions: flashplate, polyrA/biotinylated-oligo dT, 100 nM NS5B, 2 hrs at room temperature; read-out: RNA pol Assay 2 IC50 (μm).
Method: In vitro HCV RdRp Flashplate Scintillation Proximity Assay (Strep-Flash Assay) Used to Evaluate Analogues:
In brief, a 400 ng/μl polyrA solution (Amersham Pharmacia Biotech) was mixed volume-to-volume with 5′ biotin-oligo dT12 at 20 pmol/μl. The template and primers were denatured at 95 C for 5 minutes then incubated at 37 C for 10 minutes. Annealed template-primers were subsequently diluted in a Tris-HCl containing buffer and allowed to bind to streptavidin-coated flashplates overnight.

recombinant HCV NS5B, sequence (P26663 2420-3010 limits assumed): as above

| Structure (SMILES) | IC50 [µM] |
| --- | --- |
| CC(c1cccc(C#N)c1)N(C(=O)c1ccc(Cl)cc1Cl)[C@@H](Cc1ccccc1)C(=O)O (stereo in doubt) [Compound #205, 2-[[1-(3-CYANO-PHENYL)-ETHYL]-(2,4-DICHLORO-BENZOYL)-AMINO]-3PHENYL-PROPIONIC ACID] | 5 to 20 |
| CN(C(=O)c1ccc(Cl)cc1Cl)[C@H](Cc1ccc(-c2cc3ccccc3o2)cc1)C(=O)O [Compound #29, 3-(4-Benzofuran-2-yl-phenyl)-2-[(2,4-dichloro-benzoyl)-methyl-amino]-propionic acid] | 5 to 20 |
| O=C(O)[C@H](Cc1ccccc1)N(Cc1cccc([N+](=O)[O-])c1)C(=O)c1ccc(Cl)cc1Cl [Compound #53, (2S)-2-[(2,4-Dichloro-benzoyl)-(3-nitro-benzyl)-amino]-3-phenyl-propionic acid] | < 5 |
| COC(=O)c1cccc(CN(C(=O)c2ccc(Cl)cc2Cl)[C@@H](Cc2ccccc2)C(=O)O)c1 [Compound #117, 3-{[(1-Carboxy-2-phenyl-ethyl)-(2,4-dichloro-benzoyl)-amino]-methyl}-benzoic acid methyl ester] | < 5 |
| N#Cc1cccc(-c2ccc(CN(C(=O)c3ccc(Cl)cc3Cl)[C@@H](Cc3ccccc3)C(=O)O)o2)c1 [Compound #119, 2-[[5-(3-Cyano-phenyl)-furan-2-ylmethyl]-(2,4-dichloro-benzoyl)-amino]-3-phenyl-propionic acid] | < 5 |
| Cc1ccc(C(=O)N(Cc2cc(-c3ccc(F)c(Cl)c3)cs2)[C@@H](Cc2ccccc2)C(=O)O)c(C)c1 [Compound #192, 2-[[4-(3-Chloro-4-fluoro-phenyl)-thiophen-2-ylmethyl]-(2,4-dimethyl-benzoyl)-amino]-3-phenyl-propionic acid] | < 5 |
| O=C(O)c1cccc(CN(C(=O)c2ccc(Cl)cc2Cl)[C@@H](Cc2ccccc2)C(=O)O)c1 [Compound #193, 3-{[(1-Carboxy-2-phenyl-ethyl)-(2,4-dichloro-benzoyl)-amino]-methyl}-benzoic acid] | < 5 |
| Nc1cccc(CN(C(=O)c2ccc(Cl)cc2Cl)[C@@H](Cc2ccccc2)C(=O)O)c1 [Compound #194, 2-[(3-Amino-benzyl)-(2,4-dichloro-benzoyl)-amino]-3-phenyl-propionic acid] | 5 to 20 |
| O=C(O)[C@@H](Cc1ccccc1)N(Cc1ccccc1)C(=O)c1ccc(Cl)cc1Cl [Compound #199, 2-[Benzyl-(2,4-dichloro-benzoyl)-amino]-3-phenyl-propionic acid] | 5 to 20 |
| O=C(O)C(Cc1ccccc1)N(Cc1cccc(-c2nn[nH]n2)c1)C(=O)c1ccc(Cl)cc1Cl (stereo not drawn) [Compound #200, 2-{(2,4-DICHLORO-BENZOYL)-[3-(2H-TETRAZOL-5-YL)-BENZYL]-AMINO}-3-PHENYL-PROPIONIC ACID] | < 5 |
| O=C(O)[C@H](Cc1ccccc1)N(Cc1ccccc1[N+](=O)[O-])C(=O)c1ccc(Cl)cc1Cl [Compound #201, 2-[(2,4-DICHLORO-BENZOYL)-(2-NITRO-BENZYL)-AMINO]-3-PHENYL-PROPIONIC ACID] | 5 to 20 |
| O=C(O)[C@H](Cc1ccccc1)N(Cc1ccc([N+](=O)[O-])cc1)C(=O)c1ccc(Cl)cc1Cl [Compound #202, 2-[(2,4-DICHLORO-BENZOYL)-(4-NITRO-BENZYL)-AMINO]-3-PHENYL-PROPIONIC] | 5 to 20 |
| N#Cc1ccccc1CN(C(=O)c1ccc(Cl)cc1Cl)[C@@H](Cc1ccccc1)C(=O)O [Compound #203, 2-[(2-CYANO-BENZYL)-(2,4-DICHLORO-BENZOYL)-AMINO]-3-PHENYL-PROPIONIC ACID] | 5 to 20 |
| N#Cc1ccc(CN(C(=O)c2ccc(Cl)cc2Cl)[C@@H](Cc2ccccc2)C(=O)O)cc1 [Compound #204, 2-[(4-CYANO-BENZYL)-(2,4-DICHLORO-BENZOYL)-AMINO]-3-PHENYL-PROPIONIC ACID] | 5 to 20 |
| CS(=O)(=O)c1cccc(CN(C(=O)c2ccc(Cl)cc2Cl)[C@@H](Cc2ccccc2)C(=O)O)c1 [Compound #208, 2-[(2,4-DICHLORO-BENZOYL)-(3-METHANESULFONYL-BENZYL)-AMINO]-3-PHENYL-PROPIONIC ACID] | 5 to 20 |

Second part, the compound after the results:

| IC50 [µM] | Structure (SMILES) |
| --- | --- |
| < 5 | O=C(O)C(Cc1ccccc1)N(Cc1cc(Cl)cc(Cl)c1)C(=O)c1ccc(Cl)cc1Cl (stereo in doubt) [compound #142, (2s)-2-[(2,4-Dichloro-benzoyl)-(3,5-dichloro-benzyl)-amino]-3-phenyl-propionic acid] |
| < 5 | O=C(O)C(Cc1ccccc1)N(Cc1ccsc1)C(=O)c1ccc(Cl)cc1Cl (stereo in doubt) [compound #143, (2s)-2-[(2,4-Dichloro-benzoyl)-thiophen-3-ylmethyl-amino]-3-phenyl-propionic acid] |
| 5 to 20 | O=C(O)[C@H](Cc1ccccc1)N(C[C@H]1CCCN1)C(=O)c1ccc(Cl)cc1Cl (stereo in doubt) [compound #168, d-2-[(2,4-Dichloro-benzoyl)-pyrrolidin-2-ylmethyl-amino]-3-phenyl-propionic acid] |
| < 5 | CN(C(=O)c1ccc(Cl)cc1Cl)[C@H](Cc1ccc(Br)s1)C(=O)O (stereo in doubt) [compound #169, 3-(5-Bromo-thiophen-2-yl)-2-[(2,4-dichloro-benzoyl)-methyl-amino]-propionic acid] |
| < 5 | CC(=O)c1cccc(CN(C(=O)c2ccc(Cl)cc2Cl)[C@@H](Cc2ccccc2)C(=O)O)c1 [Compound #209, 2-[(3-ACETYL-BENZYL)-(2,4-DICHLORO-BENZOYL)-AMINO]-3-PHENYL-PROPIONIC ACID] |
